Data from patent US20220387268A1, “OIL-IN-WATER MACROEMULSION” (SYMRISE AG, priority 2019, published 2022).

What was measured:
water solubility = format: physicochemical; details: room temperature
[1] = log P value (octanol:water); format: physicochemical; details: water/n-octanol
Description: The partition coefficient (P) is the ratio of concentrations of a compound in a mixture of two immiscible solvents at equilibrium. This ratio is therefore a comparison of the solubility of the solute in these two liquids. In the chemical and pharmaceutical sciences, both phases usually are solvents. Most commonly, one of the solvents is water, while the second is hydrophobic such as 1-octanol.
Log P=log 10(Partition Coefficient)
Partition Coefficient,P=[organic]/[aqueous]

Row | SMILES | Water solubility (water solubility) [µg/mL] | log P [1]
1 | CC(C=O)Cc1ccc(C(C)C)cc1 (stereo not shown) | 17.8 | 3.91
2 | C=CC(C)CCCC(C)(C)O (stereo not shown) [DIHYDROMYRCENOL] | 671.2 | 3.47
3 | CC(=O)OC1CCCCC1C(C)(C)C (stereo not shown) [AGRUMEX LC] | 17.6 | –
4 | CCCCCC/C(C=O)=C\c1ccccc1 [HEXYLZIMTALDEHYD ALPHA] | 1.2 | 4.82
5 | CCCC(=O)OC(C)(C)Cc1ccccc1 [DIMETHYLBENZYLCARBINYLBUTYRAT] | – | 4.43
6 | CCC(C)(O)CCCC(C)C (stereo not shown) [TETRAHYDROLINALOOL] | 492.4 | 3.6
7 | O=C1CCCCCCCCCCCC(=O)OCCO1 [ETHYLENBRASSYLAT] | 20.9 | 4.71
8 | CCCCCC1CCC(=O)O1 (stereo not shown) [ALDEHYD C18 SOG.] | 2373.1 | –
9 | O=Cc1ccc2c(c1)OCO2 [HELIOTROPIN/PIPERONAL] | 2260.1 | 1.77
10 | CCCCCC1C(=O)CCC1CC(=O)OC (stereo not shown) [HEDION] | 401.5 | –
